Source: PubChem BioAssay (NCI)
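Method: 48-hour compound exposure of cells in 96-well plates, five concentrations, linear interpolation of endpoints. GI50: concentration for 50% inhibition of growth. TGI denotes the concentration required for complete inhibition of growth.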

Assays:
Assay in all cases: NCI tumour cell line growth inhibition, 48 h
[1] = system: COLO 205 colon
[2] = system: OVCAR-3 ovarian
[3] = system: A549 NSCLC
[4] = system: LOX IMVI melanoma
[5] = system: UO-31 renal
[6] = system: PC-3 prostate
[7] = system: HL-60(TB) leukemia
[8] = system: KM12 colon
[9] = system: DU-145 prostate
[10] = system: A498 renal

SMILES | TGI [1] [µM] | TGI [2] [µM] | TGI [3] [µM] | TGI [4] [µM] | TGI [5] [µM] | TGI [6] [µM] | TGI [7] [µM] | TGI [8] [µM] | TGI [9] [µM] | TGI [10] [µM] | GI50 [1] [µM] | GI50 [2] [µM] | GI50 [3] [µM] | GI50 [4] [µM] | GI50 [5] [µM] | GI50 [7] [µM] | GI50 [10] [µM] | GI50 [8] [µM] | GI50 [9] [µM] | GI50 [6] [µM]
CC(C(N)C(=O)NC(C(=O)O)C1OC(n2ccc(=O)[nH]c2=O)C(O)C1O)C(O)c1ccc(O)cn1 (centres undefined) | > 100 | > 100 | > 100 | > 100 | > 100 | > 100 | > 100 | > 100 | > 100 | – | – | – | – | – | – | – | – | – | – | –
O=C(CCn1[nH]c(=O)c(Cl)c(Cl)c1=O)NNC(=O)C[n+]1ccccc1 | > 100 | > 100 | > 100 | > 100 | > 100 | – | > 100 | > 100 | – | > 100 | – | – | – | – | – | – | – | – | – | –
CN(CC(=O)Nc1nc2ccccc2[nH]1)S(=O)(=O)c1ccc(Cl)cc1 | > 100 | > 100 | > 100 | > 100 | > 100 | – | > 100 | > 100 | > 100 | > 100 | > 100 | > 100 | > 100 | > 100 | > 100 | > 100 | > 100 | > 100 | > 100 | –
NS(=O)(=O)CC1CC[CH-]CC1.[Cl-].[Cl-].[Cl-].[Cl-].[Cl-].[Sb+5].c1ccncc1 | > 100 | > 100 | > 100 | > 100 | > 100 | > 100 | – | > 100 | > 100 | > 100 | > 100 | > 100 | > 100 | > 100 | > 100 | – | > 100 | > 100 | > 100 | > 100
Oc1c(Cl)cc(Cl)cc1C(c1cc(Cl)cc(Cl)c1O)C(Cl)(Cl)Cl | 4.76 | 10.8 | 14.4 | 5.57 | – | 10.9 | 10.3 | 10.1 | 15.7 | 5.77 | 1.89 | 2.4 | 3.77 | 2.08 | – | 3.25 | 1.68 | 2.83 | 4.12 | 2.19
CCCCCCCCCC(=O)OCC1OC(n2cc(F)c(=O)[nH]c2=O)C(NC(=O)OCc2ccccc2)C(OC(=O)CCCCCCCCC)C1O (centres undefined) | > 100 | 48.5 | > 100 | 30.2 | > 100 | – | 55.8 | > 100 | – | > 100 | – | – | – | – | – | – | – | – | – | –
CCN(CC)C(=S)SCN1C(=O)c2ccccc2S1(=O)=O | > 100 | > 100 | > 100 | > 66.8 | > 100 | > 100 | – | > 100 | > 100 | > 100 | 33.2 | 34.3 | 41.2 | 29.5 | 53.9 | – | 42.9 | 14.4 | 29.4 | 4.9
Nc1ccc(-c2cccs2)cc1NC(=O)c1ccc(CCCC(=O)Nc2ccc(C3CC3N)cc2)cc1 (centres undefined) | > 100 | 3.14 | – | – | > 100 | – | > 100 | > 100 | – | 92 | 2.44 | 1.48 | – | – | 23.3 | 2.54 | 20.4 | 3.43 | – | –
C=C1CC2CC(O)CC(C1)C2 (centres undefined) | > 100 | > 100 | > 100 | > 100 | > 100 | – | – | > 100 | – | > 100 | – | – | – | – | – | – | – | – | – | –
CSc1snc2sc3c(Cl)nnnc3c12 | 24 | 5.72 | 33.9 | 11.2 | 25.6 | – | – | 30 | – | 28.7 | – | – | – | – | – | – | – | – | – | –
O=C(CC(=O)c1cccc2ccccc12)C(=O)NC1C2CC3CC(C2)CC1C3 (centres undefined) | > 100 | > 100 | > 100 | > 100 | > 100 | – | > 100 | > 100 | – | > 100 | – | – | – | – | – | – | – | – | – | –
Nc1n[n+](-c2ccccc2)no1 | > 100 | > 100 | > 100 | > 100 | > 100 | – | > 100 | > 100 | – | > 100 | – | – | – | – | – | – | – | – | – | –
CC(=O)O[C@@]1(C)[C@@H](C)C(=O)O[C@@H]2CCN3CC=C(COC(=O)[C@]1(C)O)[C@H]23 | > 100 | > 100 | > 100 | – | > 100 | – | > 100 | > 100 | – | – | – | – | – | – | – | – | – | – | – | –
CC(=O)c1c(CO[N+](=O)[O-])n([O-])c2ccccc2[n+]1=O | > 100 | > 100 | > 100 | > 100 | > 100 | > 100 | – | – | > 100 | – | – | – | – | – | – | – | – | – | – | –
COc1ccc2oc(C(=O)O)c3c2c1CCC3CCC(=O)O (centres undefined) | > 100 | > 1 | > 100 | > 100 | > 100 | – | > 100 | > 100 | – | > 100 | – | – | – | – | – | – | – | – | – | –
CC1(C)NCCC[C@]2(C)[C@H]3CC[C@@H]4[C@H]5[C@H](C(=O)/C=C/c6ccccn6)CC[C@]5(CO)CC[C@@]4(C)[C@]3(C)CC[C@@H]12 | 4.28 | 4.89 | 11.2 | – | 23.3 | 11.8 | 4.7 | 4.27 | 12.4 | 23.5 | 2.07 | 2.14 | 2.88 | – | 5.7 | 1.84 | 8.7 | 2.07 | 3.56 | 2.55
CCOC(=O)c1cnc2sc3ccc4ccccc4c3n2c1=O | > 100 | > 100 | > 100 | > 100 | 94.6 | – | 52 | > 100 | – | – | – | – | – | – | – | – | – | – | – | –
O=C1c2ccccc2-c2c1c1c(O)cccc1n2Cc1ccccn1 | > 100 | 69.4 | > 100 | > 100 | > 100 | > 100 | – | > 100 | > 100 | – | 61 | 20.1 | 45.3 | 35.5 | > 100 | – | – | > 100 | 36.5 | 43.8
O=C(N/N=C1\C(=O)N(c2nccs2)C(=O)C(=O)C1c1nc2ccccc2s1)c1ccccc1O (centres undefined) | > 100 | > 100 | > 100 | > 100 | 35.4 | – | > 100 | > 100 | – | > 100 | – | – | – | – | – | – | – | – | – | –
